Results: the NIST ThermoML archive (doi:10.1021/je5010214)
Numbers after ± are expanded uncertainties.

Details: Liquid, Vibrating tube method

CCCCCCC [heptane]
Details	mass density [kg/m3]
283.15 K, 101 kPa	692.398 ± 0.81
283.15 K, 267.6 kPa	692.646 ± 0.81
283.15 K, 550.8 kPa	692.799 ± 0.81
283.15 K, 878.6 kPa	693.177 ± 0.81
283.15 K, 991.3 kPa	693.192 ± 0.81
283.15 K, 2020.2 kPa	694.161 ± 0.82
283.15 K, 2914.8 kPa	694.997 ± 0.82
283.15 K, 4946.5 kPa	696.597 ± 0.82
283.15 K, 7034.8 kPa	698.638 ± 0.83
283.15 K, 9021.6 kPa	700.052 ± 0.83
283.15 K, 9991.9 kPa	700.869 ± 0.84
283.15 K, 11959 kPa	702.48 ± 0.84
283.15 K, 15011 kPa	704.783 ± 0.85
283.15 K, 18047 kPa	706.965 ± 0.86
283.15 K, 20045 kPa	708.637 ± 0.87
283.15 K, 22056 kPa	709.841 ± 0.88
283.15 K, 25044 kPa	712 ± 0.89
283.15 K, 28046 kPa	714.05 ± 0.9
283.15 K, 30052 kPa	715.435 ± 0.91
283.15 K, 32055 kPa	716.688 ± 0.92
283.15 K, 32971 kPa	717.342 ± 0.92
283.15 K, 33000 kPa	717.432 ± 0.92
283.15 K, 34016 kPa	718.012 ± 0.93
283.15 K, 34960 kPa	718.734 ± 0.93
283.15 K, 37943 kPa	720.455 ± 0.94
283.15 K, 40004 kPa	721.755 ± 0.95
283.15 K, 42058 kPa	723.102 ± 0.96
283.15 K, 44940 kPa	724.839 ± 0.98
283.15 K, 48022 kPa	726.526 ± 0.99
283.15 K, 49996 kPa	727.851 ± 1
283.15 K, 51982 kPa	728.904 ± 1
283.15 K, 54965 kPa	730.736 ± 1
283.15 K, 57949 kPa	732.407 ± 1
283.15 K, 59996 kPa	733.467 ± 1.1
283.15 K, 62025 kPa	734.345 ± 1.1
283.15 K, 64998 kPa	735.98 ± 1.1
283.16 K, 65971 kPa	736.499 ± 1.1
288.15 K, 102 kPa	688.224 ± 0.81
288.15 K, 391.3 kPa	688.682 ± 0.81
288.15 K, 554.4 kPa	688.232 ± 0.81
288.15 K, 882.7 kPa	689.214 ± 0.81
288.15 K, 989.1 kPa	688.618 ± 0.81
288.15 K, 2057.5 kPa	689.559 ± 0.82
288.15 K, 2917.8 kPa	690.931 ± 0.82
288.15 K, 5041.4 kPa	692.738 ± 0.82
288.15 K, 7088.8 kPa	693.96 ± 0.83
288.15 K, 9018.6 kPa	695.614 ± 0.83
288.15 K, 10040 kPa	696.278 ± 0.84
288.15 K, 12072 kPa	698.584 ± 0.84
288.15 K, 15001 kPa	700.836 ± 0.85
288.15 K, 17968 kPa	703.23 ± 0.86
288.15 K, 20068 kPa	704.758 ± 0.87
288.15 K, 22020 kPa	705.649 ± 0.88
288.15 K, 25002 kPa	707.645 ± 0.89
288.15 K, 28026 kPa	709.735 ± 0.9
288.15 K, 30035 kPa	711.006 ± 0.91
288.15 K, 32084 kPa	712.959 ± 0.92
288.15 K, 33050 kPa	713.818 ± 0.93
288.15 K, 33096 kPa	713.93 ± 0.93
288.15 K, 34036 kPa	714.067 ± 0.93
288.15 K, 35077 kPa	714.575 ± 0.94
288.15 K, 37993 kPa	716.378 ± 0.95
288.15 K, 40041 kPa	717.608 ± 0.96
288.15 K, 42023 kPa	718.735 ± 0.97
288.15 K, 44979 kPa	720.398 ± 0.98
288.15 K, 48045 kPa	723.18 ± 1
288.15 K, 50068 kPa	724.245 ± 1
288.15 K, 52032 kPa	724.841 ± 1
288.15 K, 55077 kPa	726.211 ± 1
288.15 K, 58004 kPa	729.214 ± 1.1
288.15 K, 59988 kPa	729.723 ± 1.1
288.15 K, 61974 kPa	731.101 ± 1.1
288.15 K, 64942 kPa	731.745 ± 1.1
288.15 K, 66025 kPa	732.751 ± 1.1
293.15 K, 100.5 kPa	683.714 ± 0.81
293.15 K, 825.1 kPa	684.796 ± 0.81
293.15 K, 1971.7 kPa	685.978 ± 0.82
293.15 K, 3060.6 kPa	686.787 ± 0.82
293.15 K, 5011 kPa	688.859 ± 0.82
293.15 K, 9042.1 kPa	692.394 ± 0.83
293.15 K, 10036 kPa	693.252 ± 0.84
293.15 K, 11946 kPa	694.459 ± 0.84
293.15 K, 14941 kPa	697.266 ± 0.85
293.15 K, 21987 kPa	701.769 ± 0.88
293.15 K, 27986 kPa	706.659 ± 0.91
293.15 K, 33150 kPa	710.401 ± 0.93
293.15 K, 33151 kPa	710.425 ± 0.93
293.15 K, 34099 kPa	710.557 ± 0.93
293.15 K, 35000 kPa	711.53 ± 0.94
293.15 K, 40081 kPa	714.898 ± 0.96
293.15 K, 42099 kPa	716.347 ± 0.97
293.15 K, 45068 kPa	718.234 ± 0.99
293.15 K, 54966 kPa	724.479 ± 1
293.15 K, 58072 kPa	726.215 ± 1.1
293.15 K, 66045 kPa	730.5 ± 1.1
293.16 K, 305.2 kPa	684.504 ± 0.81
293.16 K, 476.4 kPa	684.708 ± 0.81
293.16 K, 1045.2 kPa	685.167 ± 0.81
293.16 K, 7096.8 kPa	690.796 ± 0.83
293.16 K, 17889 kPa	698.789 ± 0.86
293.16 K, 19992 kPa	701.345 ± 0.87
293.16 K, 24983 kPa	704.2 ± 0.89
293.16 K, 29976 kPa	708.599 ± 0.91
293.16 K, 32232 kPa	710.098 ± 0.92
293.16 K, 38026 kPa	712.948 ± 0.95
293.16 K, 48022 kPa	720.258 ± 1
293.16 K, 50084 kPa	721.322 ± 1
293.16 K, 52032 kPa	722.789 ± 1
293.16 K, 60018 kPa	727.31 ± 1.1
293.16 K, 61962 kPa	728.261 ± 1.1
293.16 K, 64991 kPa	729.973 ± 1.1
298.15 K, 102.3 kPa	679.807 ± 0.81
298.15 K, 305.4 kPa	680.336 ± 0.81
298.15 K, 854.5 kPa	680.896 ± 0.81
298.15 K, 1980.9 kPa	681.933 ± 0.82
298.15 K, 3167.8 kPa	682.97 ± 0.82
298.15 K, 5067.6 kPa	684.841 ± 0.82
298.15 K, 7065.3 kPa	686.383 ± 0.83
298.15 K, 10107 kPa	689.119 ± 0.84
298.15 K, 20128 kPa	696.696 ± 0.87
298.15 K, 22004 kPa	699.062 ± 0.88
298.15 K, 25080 kPa	701.29 ± 0.89
298.15 K, 33113 kPa	707.026 ± 0.93
298.15 K, 33924 kPa	706.971 ± 0.94
298.15 K, 38097 kPa	709.948 ± 0.96
298.15 K, 40161 kPa	711.975 ± 0.96
298.15 K, 42028 kPa	713.324 ± 0.97
298.15 K, 45021 kPa	715.087 ± 0.99
298.15 K, 48107 kPa	717.001 ± 1
298.15 K, 50068 kPa	718.317 ± 1
298.15 K, 55016 kPa	721.123 ± 1
298.15 K, 57931 kPa	723.027 ± 1.1
298.15 K, 59914 kPa	724.031 ± 1.1
298.15 K, 62036 kPa	725.393 ± 1.1
298.15 K, 65018 kPa	726.954 ± 1.1
298.16 K, 493.7 kPa	680.581 ± 0.81
298.16 K, 1012.6 kPa	680.891 ± 0.81
298.16 K, 9120.9 kPa	688.48 ± 0.83
298.16 K, 11970 kPa	689.977 ± 0.84
298.16 K, 15220 kPa	693.294 ± 0.86
298.16 K, 17984 kPa	694.869 ± 0.87
298.16 K, 28040 kPa	703.578 ± 0.91
298.16 K, 30089 kPa	704.725 ± 0.92
298.16 K, 32034 kPa	706.093 ± 0.93
298.16 K, 33093 kPa	706.936 ± 0.93
298.16 K, 35217 kPa	707.884 ± 0.94
298.16 K, 52020 kPa	719.461 ± 1
298.16 K, 66118 kPa	727.501 ± 1.1
303.15 K, 100.7 kPa	675.559 ± 0.81
303.15 K, 304.1 kPa	675.598 ± 0.81
303.15 K, 498.9 kPa	675.77 ± 0.81
303.15 K, 900.6 kPa	675.904 ± 0.81
303.15 K, 979.1 kPa	676.053 ± 0.81
303.15 K, 1977.6 kPa	677.27 ± 0.82
303.15 K, 4930.4 kPa	680.06 ± 0.82
303.15 K, 11975 kPa	686.61 ± 0.84
303.15 K, 15044 kPa	689.15 ± 0.86
